Laboratory results reported in patent US20250257064A1, “TRIFLUOROMETHYL-SUBSTITUTED SULFONAMIDE AS BCL-2-SELECTIVE INHIBITOR” (Chia Tai Tianqing Pharmaceutical Group Co., Ltd., priority 2018, published 2025).

What was measured:
[1] = In vitro stability in mouse liver microsomes; type: in vitro ADME; details: 1 μM
Protocol: (§1) Experimental Example 3: In Vitro Stability in Liver Microsome
(§2) 300 μL of the final incubation system contains 30 μL of liver microsomes (protein concentration: 5 mg/mL), 30 μL of NADPH+MgCl2, 3 μL of the test compound (in acetonitrile), and 237 μL of PBS buffer (pH 7.4), wherein the proportion of the organic solvent (acetonitrile) is 1% (volume ratio). Two duplicate samples were prepared for each specie (mouse, rat and human), and each sample was 0.3 mL. Each tube which was added with 270 μL of a mixed solution of substrate and enzyme, and NADPH, after being pre-incubated at 37° C. for 5 min, was added with 30 μL of NADPH+MgCl2 and mixed. Then 50 μL of the mixture was taken at 0 min, 15 min, 30 min and 60 min, and added with 300 μL of glacial acetonitrile containing an internal standard to terminate the reaction.
(§3) 50 μL of the incubated sample was added with 300 μL of glacial acetonitrile containing an internal standard (20 ng/mL diazepam) for precipitation, vortexed for 5 min, and centrifuged (13,000 rpm, 20° C.) for 10 min. 70 μL of supernatant was taken and diluted with 70 μL of ultrapure water. After being mixed well, 1 μL of the resulting sample was injected for analysis.

[2] = tested on: human B-cell leukemia RS4;11 subcutaneous xenograft; assay: Pharmacodynamics in human B-cell leukemia RS4;11 subcutaneous xenograft model; type: in vivo, NOD/SCID mice; details: Day 17 after the end of administration
Description: Experimental Example 5: Pharmacodynamics of Compounds in Human B-Cell Leukemia RS4; 11 Subcutaneous Xenograft Model
NOD/SCID mice, female, 9-10 weeks old (ages upon tumor cell grafting), body weight of 16.3-22.0 g, purchased from Beijing AniKeeper Biotech Co., Ltd.; production license number: SCXK (Jing) 2017-0006, and animal certification number: 11402400013155. Breeding environment: SPF grade. Mice were grafted subcutaneously on the right anterior dorsal side with 1×10^7 RS4;11 cells. The day of grafting was defined as day 0. When the mean tumor volume was 240 mm^3, the mice were randomly grouped according to the tumor size. The administration was performed as per Table 5 below.
Clinical symptoms observed during the experiment were recorded in the raw data. The calculation formula for tumor volume: Tumor volume (mm^3)=½×(a×b^2) (where a represents long diameter and b represents short diameter). The data were collected using StudyDirector™ software (version No. 3.1.399.19, supplier: Studylog System, Inc., S.San Francisco, CA, USA) in the experiment, including measurements of the long and short diameters of the tumor and weighing results of the animals. The raw data obtained from a balance and a vernier caliper were directly imported into the software, and any change in the data was recorded. Relative tumor proliferation rate (T/C %) refers to the percentage of the relative tumor volume or tumor weight of the treatment and control groups at a certain time point. The calculation formula is as follows:
T/C %=TRTV/CRTV×100% (TRTV: mean RTV for treatment group; CRTV: mean RTV for vehicle control group; RTV=Vt/V0, where V0 is the tumor volume of the animal upon grouping, and Vt is the tumor volume of the animal after treatment).
(T and C are the relative tumor volume (RTV) or tumor weight (TW) at a particular time point for the treatment and control groups, respectively).
All experimental results were expressed as mean tumor volume±SEM (standard error of mean). The relative tumor volume of the treatment group was compared with that of the control group for any significant difference by the independent sample T test. All data were analyzed using SPSS 18.0. p<0.05 was defined as a significant difference.

[3] = In vitro stability in rat liver microsomes; type: in vitro ADME; details: 1 μM
Protocol: as §1, §2, §3

Pharmacokinetics in rats = type: in vivo; details: Sprague-Dawley, rat, plasma, po, SD rats, IG 5 mg/kg; for AUC(0-t): read-out: AUC(0-24 h); for MRT last: read-out: MRT(0-t)
Protocol: 4.1 Pharmacokinetics in Rats
SD rats weighing 180-220 g were randomly grouped with 3 rats in each group after 3-5 days of adaptive feeding, and intragastrically administered with compounds 1-1 and 8-1 at a dosage of 5 mg/kg.
The animals to be tested (SD rats) were fasted for 12 h before administration and fed 4 h after administration, and water was freely drunk before, after and during the experiment.
After intragastric administration, about 0.2 mL of blood was collected from the orbit at 0 min, 15 min, 30 min, 1 h, 2 h, 4 h, 6 h, 8 h, 10 h and 24 h, and after anticoagulation with EDTA-K2, blood samples were transferred to a centrifuge within 30 min, and centrifuged at 4000 rpm for 10 min at 4° C. to separate the plasma. All plasma samples were collected and immediately stored at −20° C. for testing.
50 μL of the plasma sample to be tested was added with 300 μL of acetonitrile solution containing an internal standard (20 mg/mL diazepam), shaken and mixed well for 5 min, and centrifuged at 13,000 rpm for 10 min. 75 μL of supernatant was taken and diluted with 75 μL of ultrapure water. After being mixed well, 2 μL of the resulting sample was taken for LC/MS/MS determination, and a chromatogram was recorded.
Oral exposure of the compounds disclosed herein was evaluated by in vivo pharmacokinetic experiments in rats.

BCL-XL/BAK = target: T1, BCL-XL/BAK (Homo sapiens, UniProt Q07817); assay: Screening on inhibitory activity for BCL-XL/BAK binding (Cisbio HTRF kit)
T1 construct: purchased Cisbio
Summary of the method: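 Tag1-BCL-XL and Tag2-BAK (2 nM and 80 nM before mixing) were combined with compounds at final 2000–0.488 nM (4-fold, 7 points, duplicates) for 15 min at 25° C. Eu3+ anti-Tag1 and XL665 anti-Tag2 were then added for ≥2 h at 25° C. HTRF (620/665 nm) gave IC50 by four-parameter fit.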

T1 sequence (Q07817 whole entry, species assumed): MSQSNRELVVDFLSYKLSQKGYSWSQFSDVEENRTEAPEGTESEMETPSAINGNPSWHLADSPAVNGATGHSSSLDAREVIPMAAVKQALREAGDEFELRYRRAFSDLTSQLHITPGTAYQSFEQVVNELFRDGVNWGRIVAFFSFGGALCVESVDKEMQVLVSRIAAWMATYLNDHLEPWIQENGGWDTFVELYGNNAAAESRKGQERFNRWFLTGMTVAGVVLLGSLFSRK

Compound | Mouse Residual content after 60 min (%) [1] [%] | Relative tumor volume (x ± S) ([2]; 25 mg/kg p.o. one dose) | T/C (%) ([2]; 25 mg/kg p.o. one dose) | TGI (%) ([2]; 25 mg/kg p.o. one dose) | Tumor volume (x ± S) ([2]; 25 mg/kg p.o. one dose) [mm^3] | Relative tumor volume (x ± S) ([2]; 50 mg/kg p.o. one dose) | T/C (%) ([2]; 50 mg/kg p.o. one dose) | TGI (%) ([2]; 50 mg/kg p.o. one dose) | Tumor volume (x ± S) ([2]; 50 mg/kg p.o. one dose) [mm^3] | Rat Residual content after 60 min (%) [3] [%] | AUC(0-inf) (Pharmacokinetics in rats) [ng·h/mL] | Cmax (Pharmacokinetics in rats) [ng/mL] | Tmax (Pharmacokinetics in rats) [h] | half-life (Pharmacokinetics in rats) [h] | AUC(0-t) (Pharmacokinetics in rats) [ng·h/mL] | MRT last (Pharmacokinetics in rats) [h] | IC50 (BCL-XL/BAK) [nM]
CC1(C)CCC(CN2CCN(c3ccc(C(=O)NS(=O)(=O)c4ccc(NCC5CCOCC5)c([N+](=O)[O-])c4)c(Oc4cnc5[nH]ccc5c4)c3)CC2)=C(c2ccc(C(F)(F)F)cc2Cl)C1 [Compound 1-1, 4-(4-{[2-(2-chloro-4-trifluoromethylphenyl)-4,4-dimethylcyclohex-1-enyl]methyl}-piperazin-1-yl)-N-({3-nitro-4-[(tetrahydro-2H-pyran-4-ylmethyl)amino]phenyl}sulfonyl)-2-(1H-pyrrolo[2,3-b]pyridin-5-yloxy)-benzamide] | 78.9 | 4.39 ± 0.83 | 51.5 | 48.5 | 1024.97 ± 160.59 | 1.92 ± 0.36 | 22.5 | 77.5 | 465.78 ± 95.68 | 88.4 | 4460 ± 1340 | 378 ± 83.5 | 4 | 8.73 ± 0.31 | 3700 ± 848 | 8.95 ± 4.99 | 133
CC1(C)CCC(CN2CCN(c3ccc(C(=O)NS(=O)(=O)c4ccc(NC[C@H]5COCCO5)c([N+](=O)[O-])c4)c(Oc4cnc5[nH]ccc5c4)c3)CC2)=C(c2ccc(C(F)(F)F)cc2Cl)C1 [Compound 8-1] | 73.9 | – | 29.8 | 70.2 | 600.39 ± 32.88 | – | – | – | – | 90.9 | 6560 ± 1800 | 739 ± 226 | 4 | 7.62 ± 2.78 | 5970 ± 2020 | 7.35 ± 0.45 | 155
